Measurements published in US9339034B2, “Use of thaxtomin for selective control of rice and aquatic based weeds” (MARRONE BIO INNOVATIONS, INC., priority 2009, dated 2016).

Assays:
CYI = assay: Greenhouse pot study, weed control; type: in vivo, Cyperus iria
LEF = assay: Greenhouse pot study, weed control; type: in vivo
MAQ = assay: Greenhouse pot study, weed control; type: in vivo, Marsilea quadrifolia
From the text: The activity on susceptible and resistant biotypes of Scirpus mucronatus was somewhat weaker (70 to 75%) than that observed for other sedge weeds in this study.

BYG = assay: Greenhouse pot study, weed control; type: in vivo, barnyardgrass
ECC = assay: Greenhouse pot study, weed control; type: in vivo, Echinochloa colonum
From the text: (§1) Moderate suppression (60%) was noted on Echinochloa colonum at 500 g a.i. per hectare.

[1] = system: most of the Echinochloa spp.; assay: Greenhouse pot study, weed control; type: in vivo; settings: up to the highest rate tested; 1000 g a.i. per hectare
From the text: as §1

transplanted rice = assay: First study, crop safety; type: in vivo; settings: all rates tested (64 to 1000 g a.i. per hectare)
Leptochloa sp = assay: Pot study, spray of pure thaxtomin A solutions, % control; type: in vivo, sprangletop: Leptochloa uninervia
Experimental: A pot study was conducted to test the phytotoxicity of thaxtomin A on broadleaved, sedge and grass weeds. Seeds of two most common broadleaf (redstem; Ammannia spp. and common waterplantain; Alisma plantago-aquatica), sedge (smallflower umbrella sedge; Cyperus diiformis) and grass (sprangletop: Leptochloa uninervia) weeds each were planted in a plastic pots filled with heavy clay soil. The less than 1-inch tall plants grown under growth lights (12-h light/12-h dark) at 28° C. were sprayed with pure thaxtomin A solutions containing 0.05, 0.1, 0.2, and 0.4 mg thaxtomin A per mL of solvent (4% ethanol and 0.2% non-ionic surfactant). A solution of 4% ethanol+0.2% non-ionic surfactant without thaxtomin A was used as a control treatment. Same treatments were applied to three-inch tall rice plants grown submerged under growth lights at 28° C. […] All treatments were applied in three replicates. Treated plants were kept at 28° C. under growth lights and observed at three time points—5, 12 and 21 days after treatment—for visual symptoms of phytotoxicity and % control.

[2] = system: mono and dicotyledonous seedlings; settings: cited from earlier work

CN1C(=O)[C@](O)(Cc2cccc(O)c2)N(C)C(=O)[C@@H]1Cc1c[nH]c2cccc([N+](=O)[O-])c12 [thaxtomin A]
% control (CYI; 64 g/ha): 45%
% control (CYI; 125 g/ha): 45%
% control (CYI; 250 g/ha): 95%
% control (CYI; 500 g/ha): 100%
% control (CYI; 1000 g/ha): 100%
% control (LEF; 64 g/ha): 0%
% control (LEF; 125 g/ha): 50%
% control (LEF; 250 g/ha): 60%
% control (LEF; 500 g/ha): 70%
% control (LEF; 1000 g/ha): 100%
% control (MAQ; 64 g/ha): 20%
% control (MAQ; 125 g/ha): 25%
% control (MAQ; 250 g/ha): 40%
% control (MAQ; 500 g/ha): 70%
% control (MAQ; 1000 g/ha): 85%
% control (BYG; 64 g/ha): 0%
% control (BYG; 125 g/ha): 0%
% control (BYG; 250 g/ha): 15%
% control (BYG; 500 g/ha): 30%
% control (BYG; 1000 g/ha): 40%
% control (ECC; 64 g/ha): 0%
% control (ECC; 125 g/ha): 0%
% control (ECC; 250 g/ha): 35%
% control (ECC; 500 g/ha): 60%
% control (ECC; 1000 g/ha): 60%
activity on Echinochloa spp. [1]: weakness
safety to transplanted rice (transplanted rice): complete safety
% control (Leptochloa sp; 5 DAYS, 0.05 mg/mL in 4% ethanol): 0%
% control (Leptochloa sp; 5 DAYS, 0.1 mg/mL in 4% ethanol): 0%
% control (Leptochloa sp; 5 DAYS, 0.2 mg/mL in 4% ethanol): 0%
% control (Leptochloa sp; 5 DAYS, 0.4 mg/mL in 4% ethanol): 0%
% control (Leptochloa sp; 12 DAYS, 0.05 mg/mL in 4% ethanol): 0a %
% control (Leptochloa sp; 12 DAYS, 0.1 mg/mL in 4% ethanol): 2a %
% control (Leptochloa sp; 12 DAYS, 0.2 mg/mL in 4% ethanol): 10b %
% control (Leptochloa sp; 12 DAYS, 0.4 mg/mL in 4% ethanol): 10b %
% control (Leptochloa sp; 21 DAYS, 0.05 mg/mL in 4% ethanol): 0a %
% control (Leptochloa sp; 21 DAYS, 0.1 mg/mL in 4% ethanol): 3a %
% control (Leptochloa sp; 21 DAYS, 0.2 mg/mL in 4% ethanol): 12a %
% control (Leptochloa sp; 21 DAYS, 0.4 mg/mL in 4% ethanol, listed as Thaxtomin): 17a %
% control (Leptochloa sp; 21 DAYS, 0.4 mg/mL in 4% ethanol, listed as Thaxtomin A): 17%
concentration causing cell swelling, necrosis and growth inhibition [2]: less than 1 uM
